From the supplement of paper PMC11451515

Assays:
Details in all cases: 48 h
SEM cells [1] = test: AUC of viability dose-response curve (% viability x log10 dose units); higher = less sensitive
In short: (§1)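 Library compounds in DMSO were applied for 48 h at 37°C at 11 threefold doses (47 μM to 0.79 nM) to medium-adapted leukemia cells in 1536-well plates holding 500 or 1000 cells/well. Luminescence from CellTiter-Glo One was normalised plate by plate against DMSO and cell-free wells. Area under the curve came from trapezoidal integration of a log-logistic fit, after scaling curves that rose above full viability and discarding those that failed quality control. The fit had four parameters and used log10 doses.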

NOMO1 [2] = test: as above
In short: as §1

P12-Ichikawa [3] = test: as above
In short: as §1

SEM cells [4] = test: cell viability relative to DMSO control; higher = less cytotoxic
In short: (§2)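 Viability values are per-plate percentages of DMSO wells, with background from cell-free wells. Library compounds in DMSO were pin-dosed, in an 11-point threefold series from 47 μM to 0.79 nM, onto NOMO1 or SEM (500 cells/well) or P12-Ichikawa (1000 cells/well) leukemia cells in 1536-well plates (5 μl). Those cells had been adapted for at least four passages in each medium, and CellTiter-Glo One luminescence was read after 48 h at 37°C.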

NOMO1 [5] = test: as above
In short: as §2

P12-Ichikawa [6] = test: as above
In short: as §2

Nc1ccccc1NC(=O)c1ccc(CNc2nccc(-c3cccnc3)n2)cc1
AUC of viability dose-response curve
Details | NOMO1 [2] | P12-Ichikawa [3] | SEM cells [1]
HPLM + 10% dialyzed FBS | 351 | 355 | 312
RPMI 5 mM glucose + 10% FBS | 364 | 349 | 306
RPMI 5 mM glucose + 10% dialyzed FBS | 353 | 352 | 304

cell viability [%]
Details | NOMO1 [5] | P12-Ichikawa [6] | SEM cells [4]
HPLM + 10% dialyzed FBS, 0.000781 µM | 111 | 106 | 98.4
HPLM + 10% dialyzed FBS, 0.00234 µM | 115 | 107 | 101
HPLM + 10% dialyzed FBS, 0.00702 µM | 117 | 108 | 117
HPLM + 10% dialyzed FBS, 0.0211 µM | 118 | 113 | 109
HPLM + 10% dialyzed FBS, 0.0632 µM | 119 | 110 | 119
HPLM + 10% dialyzed FBS, 0.19 µM | 117 | 120 | 110
HPLM + 10% dialyzed FBS, 0.569 µM | 105 | 113 | 73.1
HPLM + 10% dialyzed FBS, 1.71 µM | 72.1 | 85.6 | 25.5
HPLM + 10% dialyzed FBS, 5.12 µM | 23.4 | 7.68 | 8.57
HPLM + 10% dialyzed FBS, 15.4 µM | 9.43 | 6.63 | 6.62
HPLM + 10% dialyzed FBS, 46.1 µM | 9.03 | 7 | 7.25
RPMI 5 mM glucose + 10% FBS, 0.000781 µM | 90.9 | 101 | 89.7
RPMI 5 mM glucose + 10% FBS, 0.00234 µM | 113 | 106 | 94.4
RPMI 5 mM glucose + 10% FBS, 0.00702 µM | 103 | 109 | 91.6
RPMI 5 mM glucose + 10% FBS, 0.0211 µM | 103 | 110 | 97.6
RPMI 5 mM glucose + 10% FBS, 0.0632 µM | 122 | 111 | 105
RPMI 5 mM glucose + 10% FBS, 0.19 µM | 114 | 110 | 105
RPMI 5 mM glucose + 10% FBS, 0.569 µM | 97.8 | 114 | 69.4
RPMI 5 mM glucose + 10% FBS, 1.71 µM | 83.2 | 71.1 | 21.8
RPMI 5 mM glucose + 10% FBS, 5.12 µM | 27.2 | 9.5 | 7.2
RPMI 5 mM glucose + 10% FBS, 15.4 µM | 9.84 | 6.39 | 6.22
RPMI 5 mM glucose + 10% FBS, 46.1 µM | 8.73 | 6.22 | 6.49
RPMI 5 mM glucose + 10% dialyzed FBS, 0.000781 µM | 108 | 109 | 92.7
RPMI 5 mM glucose + 10% dialyzed FBS, 0.00234 µM | 117 | 107 | 111
RPMI 5 mM glucose + 10% dialyzed FBS, 0.00702 µM | 115 | 113 | 106
RPMI 5 mM glucose + 10% dialyzed FBS, 0.0211 µM | 119 | 122 | 106
RPMI 5 mM glucose + 10% dialyzed FBS, 0.0632 µM | 132 | 122 | 117
RPMI 5 mM glucose + 10% dialyzed FBS, 0.19 µM | 114 | 117 | 105
RPMI 5 mM glucose + 10% dialyzed FBS, 0.569 µM | 106 | 110 | 62.8
RPMI 5 mM glucose + 10% dialyzed FBS, 1.71 µM | 74.7 | 83 | 17.5
RPMI 5 mM glucose + 10% dialyzed FBS, 5.12 µM | 24.2 | 8.72 | 7.07
RPMI 5 mM glucose + 10% dialyzed FBS, 15.4 µM | 12.2 | 7.24 | 6.52
RPMI 5 mM glucose + 10% dialyzed FBS, 46.1 µM | 10.7 | 6.17 | 7.92

CC(C)(C)OC(=O)CN(Cc1ccc(Cl)cc1)Cc1ccc([N+](=O)[O-])s1
AUC of viability dose-response curve
Details | NOMO1 [2] | P12-Ichikawa [3] | SEM cells [1]
HPLM + 10% dialyzed FBS | 441 | 456 | 449
RPMI 5 mM glucose + 10% FBS | 436 | 443 | 454
RPMI 5 mM glucose + 10% dialyzed FBS | 464 | 429 | 436

cell viability [%]
Details | NOMO1 [5] | P12-Ichikawa [6] | SEM cells [4]
HPLM + 10% dialyzed FBS, 0.000781 µM | 109 | 99.7 | 110
HPLM + 10% dialyzed FBS, 0.00234 µM | 95.6 | 107 | 111
HPLM + 10% dialyzed FBS, 0.00702 µM | 107 | 107 | 101
HPLM + 10% dialyzed FBS, 0.0211 µM | 96.8 | 101 | 110
HPLM + 10% dialyzed FBS, 0.0632 µM | 101 | 99 | 110
HPLM + 10% dialyzed FBS, 0.19 µM | 99.6 | 98.3 | 115
HPLM + 10% dialyzed FBS, 0.569 µM | 91.1 | 96.2 | 109
HPLM + 10% dialyzed FBS, 1.71 µM | 87.5 | 96.5 | 114
HPLM + 10% dialyzed FBS, 5.12 µM | 92.7 | 91.6 | 92.8
HPLM + 10% dialyzed FBS, 15.4 µM | 75.3 | 93 | 91.5
HPLM + 10% dialyzed FBS, 46.1 µM | 40.7 | 73.6 | 43.7
RPMI 5 mM glucose + 10% FBS, 0.000781 µM | 88.9 | 92.8 | 98.2
RPMI 5 mM glucose + 10% FBS, 0.00234 µM | 98.6 | 99.2 | 103
RPMI 5 mM glucose + 10% FBS, 0.00702 µM | 95.4 | 89 | 87.5
RPMI 5 mM glucose + 10% FBS, 0.0211 µM | 87 | 97.1 | 94.4
RPMI 5 mM glucose + 10% FBS, 0.0632 µM | 93.5 | 88.2 | 103
RPMI 5 mM glucose + 10% FBS, 0.19 µM | 105 | 99.2 | 108
RPMI 5 mM glucose + 10% FBS, 0.569 µM | 96.3 | 93.3 | 90.2
RPMI 5 mM glucose + 10% FBS, 1.71 µM | 92.9 | 99.9 | 110
RPMI 5 mM glucose + 10% FBS, 5.12 µM | 89.7 | 92.8 | 99.9
RPMI 5 mM glucose + 10% FBS, 15.4 µM | 81.3 | 88.9 | 95.2
RPMI 5 mM glucose + 10% FBS, 46.1 µM | 66.5 | 69.3 | 26.1
RPMI 5 mM glucose + 10% dialyzed FBS, 0.000781 µM | 107 | 99 | 90.7
RPMI 5 mM glucose + 10% dialyzed FBS, 0.00234 µM | 97.7 | 90.7 | 97.2
RPMI 5 mM glucose + 10% dialyzed FBS, 0.00702 µM | 95.7 | 95.9 | 94.3
RPMI 5 mM glucose + 10% dialyzed FBS, 0.0211 µM | 96.6 | 92 | 99.8
RPMI 5 mM glucose + 10% dialyzed FBS, 0.0632 µM | 107 | 94.9 | 92.8
RPMI 5 mM glucose + 10% dialyzed FBS, 0.19 µM | 94 | 92 | 99.1
RPMI 5 mM glucose + 10% dialyzed FBS, 0.569 µM | 103 | 87.9 | 97.3
RPMI 5 mM glucose + 10% dialyzed FBS, 1.71 µM | 102 | 86.6 | 94
RPMI 5 mM glucose + 10% dialyzed FBS, 5.12 µM | 95.5 | 82.4 | 91.2
RPMI 5 mM glucose + 10% dialyzed FBS, 15.4 µM | 87 | 91.2 | 95.1
RPMI 5 mM glucose + 10% dialyzed FBS, 46.1 µM | 80.1 | 62.6 | 21.1

CNC(=O)c1cccc(-c2ccc3c(N4CCOC[C@@H]4C)nc(N4CCOC[C@@H]4C)nc3n2)c1
AUC of viability dose-response curve
Details | NOMO1 [2] | P12-Ichikawa [3] | SEM cells [1]
HPLM + 10% dialyzed FBS | 343 | 370 | 305
RPMI 5 mM glucose + 10% FBS | 376 | 316 | 333
RPMI 5 mM glucose + 10% dialyzed FBS | 323 | 322 | 305

cell viability [%]
Details | NOMO1 [5] | P12-Ichikawa [6] | SEM cells [4]
HPLM + 10% dialyzed FBS, 0.000781 µM | 99.9 | 104 | 97.5
HPLM + 10% dialyzed FBS, 0.00234 µM | 99.8 | 106 | 102
HPLM + 10% dialyzed FBS, 0.00702 µM | 83.6 | 95 | 85.8
HPLM + 10% dialyzed FBS, 0.0211 µM | 92.1 | 92.4 | 77.2
HPLM + 10% dialyzed FBS, 0.0632 µM | 73.8 | 87.1 | 73.2
HPLM + 10% dialyzed FBS, 0.19 µM | 61.4 | 80.2 | 63.7
HPLM + 10% dialyzed FBS, 0.569 µM | 64.3 | 78.8 | 62.6
HPLM + 10% dialyzed FBS, 1.71 µM | 67.3 | 67.7 | 47.8
HPLM + 10% dialyzed FBS, 5.12 µM | 60.1 | 65.6 | 37.6
HPLM + 10% dialyzed FBS, 15.4 µM | 49.3 | 64.8 | 38.6
HPLM + 10% dialyzed FBS, 46.1 µM | 53.7 | 62.4 | 23.1
RPMI 5 mM glucose + 10% FBS, 0.000781 µM | 98.3 | 93.7 | 110
RPMI 5 mM glucose + 10% FBS, 0.00234 µM | 91.1 | 98.6 | 98.1
RPMI 5 mM glucose + 10% FBS, 0.00702 µM | 91.2 | 86.7 | 97
RPMI 5 mM glucose + 10% FBS, 0.0211 µM | 96.6 | 75.4 | 93.3
RPMI 5 mM glucose + 10% FBS, 0.0632 µM | 79.6 | 67.2 | 84.4
RPMI 5 mM glucose + 10% FBS, 0.19 µM | 82.9 | 57.2 | 77.6
RPMI 5 mM glucose + 10% FBS, 0.569 µM | 87.2 | 55.7 | 78.7
RPMI 5 mM glucose + 10% FBS, 1.71 µM | 68.9 | 54.3 | 56.1
RPMI 5 mM glucose + 10% FBS, 5.12 µM | 57.9 | 54.9 | 47.3
RPMI 5 mM glucose + 10% FBS, 15.4 µM | 60.2 | 48.5 | 32.9
RPMI 5 mM glucose + 10% FBS, 46.1 µM | 45.2 | 44.5 | 17.9
RPMI 5 mM glucose + 10% dialyzed FBS, 0.000781 µM | 83.7 | 98.4 | 97.7
RPMI 5 mM glucose + 10% dialyzed FBS, 0.00234 µM | 85.7 | 102 | 95.9
RPMI 5 mM glucose + 10% dialyzed FBS, 0.00702 µM | 90.5 | 89.5 | 85.3
RPMI 5 mM glucose + 10% dialyzed FBS, 0.0211 µM | 79.5 | 80.6 | 76
RPMI 5 mM glucose + 10% dialyzed FBS, 0.0632 µM | 75.6 | 72.8 | 69.6
RPMI 5 mM glucose + 10% dialyzed FBS, 0.19 µM | 62.8 | 61.8 | 64.1
RPMI 5 mM glucose + 10% dialyzed FBS, 0.569 µM | 62.5 | 64.6 | 58.6
RPMI 5 mM glucose + 10% dialyzed FBS, 1.71 µM | 54.8 | 58.1 | 55.3
RPMI 5 mM glucose + 10% dialyzed FBS, 5.12 µM | 50.4 | 49.8 | 43
RPMI 5 mM glucose + 10% dialyzed FBS, 15.4 µM | 49.4 | 44.7 | 35
RPMI 5 mM glucose + 10% dialyzed FBS, 46.1 µM | 50.3 | 39.9 | 20.7
